# Assay results: patent US10792289B2 (Horizon Orphan LLC, priority 2009, dated 2020)
# Tested on: non-fermenting gram negative bacilli (NFGNB), excluding P. aeruginosa
# Test: Phase 2 study: non-fermenting gram negative bacilli density in sputum
# Type: in vivo
# Procedure: The following dosage regimens (as nebulizer loaded doses) were evaluated: 120 mg QD (daily); 240 mg QD (daily); and 240 mg BID (twice daily). Based on aerosol characterization studies of the 100 mg/ml formulation, these loaded doses of 120 and 240 mg correspond estimated respirable delivered doses (RDDs) using a PART eFlow nebulizer of about 65 and 130 mg, respectively.
# Patients were assessed on Day 1, 7, 14, and 28, and then up to 28 days after completion of study drug, namely, Days 42 and 56. The end of the study was defined as the last visit of the last patient. Study populations included: (1) safety/modified intent to treat (MITT) population which included all patients enrolled in the study that receive at least one dose of study drug; (2) efficacy evaluable (EE) population which included all patients enrolled in the study without major protocol violations that receive at least 80% of study drug doses during the 28 days of study drug therapy; and (3) pharmacokinetic (PK) population which included all patients that receive at least one dose of study drug and have at least one PK blood sample collected.
# Changes in P. aeruginosa density (log lo CFU/g sputum) for sputum samples taken from the EE and MITT populations are summarized in Tables 10 and 11, respectively (SD=standard deviation). […] Tables 18 and 19 summarize changes in non-fermenting gram negative bacilli density (NFGNB), excluding P. aeruginosa, with only patients with positive NFGNB counts at baseline, for EE and MITT populations, respectively. Tables 20 and 21 summarize changes for presumptive S. aureus density (log10 CFU/g sputum) for only patients with positive S. aureus counts at baseline, for EE and MITT populations, respectively.
# [1] = EE population, Combined 240 mg QD and BID
# [2] = EE population, Combined Levofloxacin
# [3] = MITT population, Combined 240 mg QD and BID
# [4] = MITT population, Combined Levofloxacin
compound,measurement,setting,value
"C[C@H]1COc2c(N3CCN(C)CC3)c(F)cc3c(=O)c(C(=O)O)cn1c23 [Levofloxacin, levofloxacin]","NFGNB density, Change from Baseline to Day 7, Mean","EE population, 120 mg QD",−1.15 log10 CFU/g sputum
same,"NFGNB density, Day 1, Mean","EE population, 120 mg QD",5.69 log10 CFU/g sputum
same,"NFGNB density, Day 7, Mean","EE population, 120 mg QD",4.54 log10 CFU/g sputum
same,"NFGNB density, Day 14, Mean","EE population, 120 mg QD",3.15 log10 CFU/g sputum
same,"NFGNB density, Day 28, Mean","EE population, 120 mg QD",5.10 log10 CFU/g sputum
same,"NFGNB density, Change from Baseline to Day 28, Mean","EE population, 120 mg QD, Day 14",−2.54 log10 CFU/g sputum
same,"NFGNB density, Change from Baseline to Day 28, Mean","EE population, 120 mg QD, Day 28",−1.44 log10 CFU/g sputum
same,"NFGNB density, Change from Baseline to Day 7, Mean","EE population, 240 mg BID",−0.51 log10 CFU/g sputum
same,"NFGNB density, Day 1, Mean","EE population, 240 mg BID",5.52 log10 CFU/g sputum
same,"NFGNB density, Day 7, Mean","EE population, 240 mg BID",5.01 log10 CFU/g sputum
same,"NFGNB density, Day 14, Mean","EE population, 240 mg BID",6.02 log10 CFU/g sputum
same,"NFGNB density, Day 28, Mean","EE population, 240 mg BID",5.01 log10 CFU/g sputum
same,"NFGNB density, Change from Baseline to Day 28, Mean","EE population, 240 mg BID, Day 14",0.50 log10 CFU/g sputum
same,"NFGNB density, Change from Baseline to Day 28, Mean","EE population, 240 mg BID, Day 28",−0.51 log10 CFU/g sputum
same,"NFGNB density, Change from Baseline to Day 7, Mean","EE population, 240 mg QD",−2.47 log10 CFU/g sputum
same,"NFGNB density, Day 1, Mean","EE population, 240 mg QD",4.65 log10 CFU/g sputum
same,"NFGNB density, Day 7, Mean","EE population, 240 mg QD",2.18 log10 CFU/g sputum
same,"NFGNB density, Day 14, Mean","EE population, 240 mg QD",2.04 log10 CFU/g sputum
same,"NFGNB density, Day 28, Mean","EE population, 240 mg QD",1.36 log10 CFU/g sputum
same,"NFGNB density, Change from Baseline to Day 28, Mean","EE population, 240 mg QD, Day 14",−2.61 log10 CFU/g sputum
same,"NFGNB density, Change from Baseline to Day 28, Mean","EE population, 240 mg QD, Day 28",−3.29 log10 CFU/g sputum
same,"NFGNB density, Change from Baseline to Day 7, Mean",[1],−1.60 log10 CFU/g sputum
same,"NFGNB density, Day 1, Mean",[1],5.03 log10 CFU/g sputum
same,"NFGNB density, Day 7, Mean",[1],3.44 log10 CFU/g sputum
same,"NFGNB density, Day 14, Mean",[1],3.80 log10 CFU/g sputum
same,"NFGNB density, Day 28, Mean",[1],2.98 log10 CFU/g sputum
same,"NFGNB density, Change from Baseline to Day 28, Mean","EE population, Combined 240 mg QD and BID, Day 14",−1.23 log10 CFU/g sputum
same,"NFGNB density, Change from Baseline to Day 28, Mean","EE population, Combined 240 mg QD and BID, Day 28",−2.05 log10 CFU/g sputum
same,"NFGNB density, Change from Baseline to Day 7, Mean",[2],−1.44 log10 CFU/g sputum
same,"NFGNB density, Day 1, Mean",[2],5.27 log10 CFU/g sputum
same,"NFGNB density, Day 7, Mean",[2],3.83 log10 CFU/g sputum
same,"NFGNB density, Day 14, Mean",[2],3.57 log10 CFU/g sputum
same,"NFGNB density, Day 28, Mean",[2],3.63 log10 CFU/g sputum
same,"NFGNB density, Change from Baseline to Day 28, Mean","EE population, Combined Levofloxacin, Day 14",−1.70 log10 CFU/g sputum
same,"NFGNB density, Change from Baseline to Day 28, Mean","EE population, Combined Levofloxacin, Day 28",−1.87 log10 CFU/g sputum
same,"NFGNB density, Change from Baseline to Day 7, Mean","MITT population, 120 mg QD",−1.15 log10 CFU/g sputum
same,"NFGNB density, Day 1, Mean","MITT population, 120 mg QD",5.69 log10 CFU/g sputum
same,"NFGNB density, Day 7, Mean","MITT population, 120 mg QD",4.54 log10 CFU/g sputum
same,"NFGNB density, Day 14, Mean","MITT population, 120 mg QD",3.25 log10 CFU/g sputum
same,"NFGNB density, Day 28, Mean","MITT population, 120 mg QD",5.10 log10 CFU/g sputum
same,"NFGNB density, Change from Baseline to Day 28, Mean","MITT population, 120 mg QD, Day 14",−2.54 log10 CFU/g sputum
same,"NFGNB density, Change from Baseline to Day 28, Mean","MITT population, 120 mg QD, Day 28",−1.44 log10 CFU/g sputum
same,"NFGNB density, Change from Baseline to Day 7, Mean","MITT population, 240 mg BID",−0.42 log10 CFU/g sputum
same,"NFGNB density, Day 1, Mean","MITT population, 240 mg BID",6.05 log10 CFU/g sputum
same,"NFGNB density, Day 7, Mean","MITT population, 240 mg BID",5.63 log10 CFU/g sputum
same,"NFGNB density, Day 14, Mean","MITT population, 240 mg BID",6.50 log10 CFU/g sputum
same,"NFGNB density, Day 28, Mean","MITT population, 240 mg BID",5.63 log10 CFU/g sputum
same,"NFGNB density, Change from Baseline to Day 28, Mean","MITT population, 240 mg BID, Day 14",0.45 log10 CFU/g sputum
same,"NFGNB density, Change from Baseline to Day 28, Mean","MITT population, 240 mg BID, Day 28",−0.43 log10 CFU/g sputum
same,"NFGNB density, Change from Baseline to Day 7, Mean","MITT population, 240 mg QD",−2.73 log10 CFU/g sputum
same,"NFGNB density, Day 1, Mean","MITT population, 240 mg QD",5.26 log10 CFU/g sputum
same,"NFGNB density, Day 7, Mean","MITT population, 240 mg QD",2.52 log10 CFU/g sputum
same,"NFGNB density, Day 14, Mean","MITT population, 240 mg QD",3.08 log10 CFU/g sputum
same,"NFGNB density, Day 28, Mean","MITT population, 240 mg QD",2.77 log10 CFU/g sputum
same,"NFGNB density, Change from Baseline to Day 28, Mean","MITT population, 240 mg QD, Day 14",−2.18 log10 CFU/g sputum
same,"NFGNB density, Change from Baseline to Day 28, Mean","MITT population, 240 mg QD, Day 28",−2.49 log10 CFU/g sputum
same,"NFGNB density, Change from Baseline to Day 7, Mean",[3],−1.77 log10 CFU/g sputum
same,"NFGNB density, Day 1, Mean",[3],5.59 log10 CFU/g sputum
same,"NFGNB density, Day 7, Mean",[3],3.82 log10 CFU/g sputum
same,"NFGNB density, Day 14, Mean",[3],4.50 log10 CFU/g sputum
same,"NFGNB density, Day 28, Mean",[3],3.96 log10 CFU/g sputum
same,"NFGNB density, Change from Baseline to Day 28, Mean","MITT population, Combined 240 mg QD and BID, Day 14",−1.08 log10 CFU/g sputum
same,"NFGNB density, Change from Baseline to Day 28, Mean","MITT population, Combined 240 mg QD and BID, Day 28",1.63 log10 CFU/g sputum
same,"NFGNB density, Change from Baseline to Day 7, Mean",[4],−1.59 log10 CFU/g sputum
same,"NFGNB density, Day 1, Mean",[4],5.62 log10 CFU/g sputum
same,"NFGNB density, Day 7, Mean",[4],4.03 log10 CFU/g sputum
same,"NFGNB density, Day 14, Mean",[4],4.11 log10 CFU/g sputum
same,"NFGNB density, Day 28, Mean",[4],4.24 log10 CFU/g sputum
same,"NFGNB density, Change from Baseline to Day 28, Mean","MITT population, Combined Levofloxacin, Day 14",−1.51 log10 CFU/g sputum
same,"NFGNB density, Change from Baseline to Day 28, Mean","MITT population, Combined Levofloxacin, Day 28",−1.58 log10 CFU/g sputum
